How the values were obtained:
hepatic B cells = assay: Hepatic B cell characterization by flow cytometry, with liver/plasma cytokine and chemokine levels (Example 6); format: in vivo, mouse
Procedure: Male C57BL/6 mice (age 8-10 wks) were treated with mirt (20 mg/kg ip) or vehicle and livers removed 3-5 hrs later for B cell isolation and characterization by flow cytometry (FACS). Similarly peripheral blood and splenic B cells numbers were determined by FACS. Liver cytokine and chemokine levels were measured by Luminex®.

PBC patients = assay: THIN database cohort study of PBC patients: decompensation, liver transplant and mortality free survival by drug usage; format: in vivo, human
From the text: We conducted a cohort study using The Health Improvement Network (THIN). THIN is one of the largest medical databases in the UK^8, consisting of prospectively gathered electronic medical records from over 11.1 million patients^8. […] Data from participant general practitioners across the UK is exported to the THIN administrators and database, which is updated every 3 months^11. The THIN database records demographic data and clinical events using Read codes, prescription medications, and laboratory values^12.
We identified patients with PBC Read code “J6160” from April 1974 until May 2007. This cohort was followed until May 2012. We excluded patients having overlap syndrome with autoimmune hepatitis or primary sclerosing cholangitis. The first code of PBC identified in the THIN database was considered the index (ie. diagnosis) date. FIG. 10 provides a flow diagram illustrating the selection of the study population. The primary outcome was the first occurrence of one of the three events following the diagnosis of PBC: (1) decompensation of cirrhosis (ascites, spontaneous bacterial peritonitis, hepatic encephalopathy, hepatorenal syndrome, variceal bleeding, jaundice, or hepatocellular carcinoma); (2) liver transplantation; or (3) death.
Read codes were used to identify patients with chronic depression disorder. Chronic depression was defined as follows: (1) never diagnosed with chronic depression; (2) past depression diagnosis prior to 90 days from PBC diagnosis; and (3) current depression diagnosis if a diagnosis was made within 90 days before or after a PBC diagnosis. Using THIN database therapy files, we assessed the impact of anti-depressant medications on outcomes of PBC patients (mortality, decompensation, and liver transplant).
For each anti-depressant medication, use was defined as follows: (1) never used the medication; (2) past use as defined as a previous code for medication use prior to 90 days of PBC diagnosis; and (3) current medication user if the medication code was identified within 90 days before or after a PBC diagnosis. We assessed the effect of each anti-depressant medication on study outcomes separately. Antidepressants were classified as typical or atypical and stratified accordingly. Atypical antidepressants include: Agomelatine, Bupropion and Mirtazapine. While typical antidepressants include the following groups: (a) Selective Serotonin Reuptake Inhibitors (SSRI): Citalopram, Escitalopram, Fluoxetine, Fluvoxamine, Paroxetine and Sertraline; (b) […] (SNRI): Desvenlafaxine, Duloxetine, Minacipran and Venlafaxine; (c) Serotonin modulators: Nefazodone, Trazodone and Vilazodone; (d) Tricyclics and tetracyclics: Amitriptyline, Amoxapine, Clomipramine, Desipramine, Doxepin, Imipramine, Maprotiline, Nortriptyline and Protriptyline, Trimiprramine; (e) Monamine oxidase inhibitors: Isocarboxazid, Phenelzine, Selegiline and Tranylcypromine.
We assessed age at diagnosis of PBC, sex, and the presence of coexisting liver disease (ie. chronic hepatitis either viral, alcoholic, or fatty liver disease; yes/no). Smoking status was classified (current, former, never smoked, or unknown status) at the time of PBC diagnosis, alcohol consumption was classified (current, former, never consumed alcohol, or unknown status) at PBC diagnosis. Ursodeoxycholic acid (UDCA) usage (ever/never recorded) was also determined.
In our primary analysis, we assessed demographic, clinical, and medication variables in the PBC cohort according to depression status. Where appropriate, we used the Fisher Exact test or Chi-Square test for categorical data, and the Kruskal-Wallis or Student's t-test for continuous data. Univariate analysis using Log Rank test and multivariate Cox Proportional Regression models were used to assess the impact of depression or anti-depressant medications on PBC outcomes as defined by death, decompensated cirrhosis, or liver transplant. […]

circulating TNFα = details: patients with major depressive disorder; cited from earlier work
[1] = usage prior to PBC diagnosis vs none

With `CN1CCN2c3ncccc3Cc3ccccc3C2C1` (stereo not shown) [Mirtazapine] the “B cell CXCR3 expression levels (MFI)” value (hepatic B cells; 20 mg/kg ip, 3-5 hrs) was 12180±315.9, the “Elevation of hepatic CXCL10 levels (Luminex)” value (hepatic B cells; 20 mg/kg ip, 3-5 hrs) was roughly 120 fold and the “Frequency of VLA-4+ hepatic B cells” value (hepatic B cells; 20 mg/kg ip, 3-5 hrs) was 61.9+1.8%. For the same compound, the “Hepatic CXCR3+ B cells” value (hepatic B cells; 20 mg/kg ip, 3-5 hrs) was 47.5+1.4%, the “Hepatic CXCR3hi B cells” value (hepatic B cells; 20 mg/kg ip, 3-5 hrs) was 30.7±1.5% and the “Hepatic CXCR3lo B cells” value (hepatic B cells; 20 mg/kg ip, 3-5 hrs) was “did not significantly alter”. The “Increase in hepatic IFNγ levels (Luminex)” value (hepatic B cells; 20 mg/kg ip, 3-5 hrs) was roughly 8 fold, the “VLA-4+CXCR3hi B cells” value (hepatic B cells; 20 mg/kg ip, 3-5 hrs) was 16.1±1.7% and the “Decrease in total hepatic B cell (IgM+) numbers” value (hepatic B cells; 20 mg/kg ip, within 3-5 hours) was roughly 48%. The “% B2 cells of IgM+ B cells in liver” value (hepatic B cells; 5 hr post-treatment) was 29.6%+2.3%, the “B1a B cells within the liver” value (hepatic B cells; 5 hrs post-treatment) was 32.4%+1.5% and the “Plasma levels of CXCL10 (ELISA)” value (hepatic B cells; 5 hrs post-treatment) was 138.4 ± 24.4 pg/mL. For the same compound, the “Hepatic B1b B cells” value (hepatic B cells; 5 hrs post-treatment, NS) was 23.5%+1.4%, the “CD11b+Ly6Chi monocytes producing CXCL10” value (hepatic B cells; flow cytometry, 3 hrs post-treatment) was 12.2%±3.8% and the “Hepatic VCAM-1 expression (immunohistochemistry)” value (hepatic B cells; post-mirt) was “clear upregulation”. The “Protective effect against liver decompensation, transplantation, or death” value (PBC patients; PBC cohort) was “over four-fold protective effect”, the “Requirement of liver transplant” value (PBC patients; PBC patients who had ever used the drug) was “None of the PBC patients who had ever used mirtazapine required liver transplant” and the “Multivariate model-2 HR (include age, gender, alcohol, URSO, depression, mirtazapine)” value (PBC patients; current usage (after PBC diagnosis) vs none) was 0.23. For the same compound, the “Univariate HR, 10-year decompensation, liver transplant and mortality free survival” value (PBC patients; current usage vs none) was 0.22, the “Adjusted HR, mortality” value (PBC patients; current usage, outcome assessed separately) was 0.22 and the “Adjusted HR, liver decompensation” value (PBC patients; current usage, outcome assessed separately, not significant) was 0.22. For the same compound, the “Adjusted HR, decompensated cirrhosis, liver transplant and mortality” value (PBC patients; sensitivity analysis: only patients using UDCA (n=793), current usage) was 0.21, the “Multivariate model-2 HR (include age, gender, alcohol, URSO, depression, mirtazapine)” value (PBC patients; [1]) was 0.94 and the “Univariate HR, 10-year decompensation, liver transplant and mortality free survival” value (PBC patients; [1]) was 0.84. The “Circulating TNFα levels” value (circulating TNFα) was “increased circulating TNFα levels”.

From US11510928B2, “Use of mirtazapine in the treatment of inflammatory disorders, autoimmune disease and PBC” (UTI Limited Partnership, priority 2017, dated 2022)
